This is an account of results in the supplement of paper PMC4862054.

Molecules are shown by their SMILES.

Assay in all cases: normalised viability (% of control), CellTiter-Blue; higher = more viable cells (about 100 = DMSO control)
Common to all, as to settings: incubation time: 72 h
For orientation: The colour change of resazurin is a common sign of viable cells or microbes.

In assay [1] the test system is CAL-148. In a few lines: (§1)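 Breast cancer cell lines were treated for 72 h in 384-well format and measured by CellTiter-Blue fluorescence at 560/590 nm. Results were normalised per plate to vehicle (100) and a positive kill control (0). The entry is normalised viability at a single listed concentration of the series.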
For assay [2], the system named is CAL-51. In a few lines: as §1
In assay [3] the test system is CAL-85-1. In a few lines: as §1
The test system of assay [4] is DU-4475. Put shortly:
as §1

In assay [5] the test system is HDQ-P1. In a few lines: as §1
Assay [6] has as its system MDA-MB-453. Put shortly: as §1
Assay [7] concerns CAL-148. On the procedure: (§2)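 DSRT, CellTiter-Blue viability, 72 h incubation. Signal is normalised to DMSO and benzethonium chloride controls. Value is the normalised response at dose 7.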
This is another data set of the same source.

In assay [8] the test system is CAL-51. On the procedure:
as §2
This is another data set of the same source.

For assay [9], the system named is CAL-85-1. On the procedure: as §2
This is another data set of the same source.

In assay [10] the test system is DU-4475. Here is the method: as §2
This is another data set of the same source.

Assay [11] relates to HDQ-P1. Here is the method:
as §2
This is another data set of the same source.

Assay [12] has as its system MDA-MB-453. Here is the method: as §2
The source holds these as a separate data set.

Regarding `Cn1c(=O)c(F)c(Nc2ccc(I)cc2F)c2c(=O)n(C[C@@H](O)CO)cnc21` [TAK-733] (1000 nM), the normalised viability is 92.8% in assay [1]; 66% in assay [2]; 39.7% in assay [3]; 0.83% in assay [4]; 60% in assay [5]; 51.2% in [6].
Consider `CN1CCN(c2ccc3nc(-c4c(N)c5c(F)cccc5[nH]c4=O)[nH]c3c2)CC1` [Dovitinib] (10000 nM), for which the normalised viability came to 88.5% in assay [1]; 108% in assay [2]; 87.1% in assay [3]; 96.7% in assay [4]; 96.4% in [5]; 79% in assay [6].
For `COc1cccc2c1C(=O)c1c(O)c3c(c(O)c1C2=O)C[C@@](O)(C(C)=O)C[C@@H]3O[C@H]1C[C@H](N)[C@H](O)[C@H](C)O1` [Daunorubicin] (100 nM), the normalised viability in [7] was found to be 30.8%; in [8] it was 38%; in assay [9], 77.2%; in assay [10], 41.7%; in assay [11], 94.9%; in assay [12], 94.8%.
For `CC(C)(C)c1cc(NC(=O)Nc2ccc(-c3cn4c(n3)sc3cc(OCCN5CCOCC5)ccc34)cc2)no1` [Quizartinib] (1000 nM), the normalised viability in assay [1] amounted to 91.3%; in assay [2], 103%; in assay [3], 89.6%; in [4], 112%; in assay [5], 111%; in assay [6], 60.2%.
In the case of `O=C(c1ccc(OCCN2CCCCC2)cc1)c1c(-c2ccc(O)cc2)sc2cc(O)ccc12` [Raloxifene] (1000 nM), the normalised viability in assay [7] was 112%; in assay [8], 91.5%; in assay [9] it was 101%; in [10] it was 86.2%; in assay [11], 81.3%; in assay [12], 97.1%.
`C#Cc1cccc(Nc2ncnc3cc(OC)c(OCCCCCCC(=O)NO)cc23)c1` [CUDC-101] (10000 nM): the normalised viability worked out at 0.77% in assay [1]; 18.1% in assay [2]; 1.33% in [3]; 1.42% in assay [4]; 19.3% in assay [5]; 0.71% in assay [6].
Regarding `CC(=O)O[C@H]1C(=O)[C@@]2(C)[C@H]([C@H](OC(=O)c3ccccc3)[C@]3(O)C[C@H](OC(=O)[C@H](O)[C@@H](NC(=O)c4ccccc4)c4ccccc4)C(C)=C1C3(C)C)[C@]1(OC(C)=O)CO[C@@H]1C[C@@H]2O` [Paclitaxel] (1000 nM), the normalised viability in assay [1] is 14.7%; in assay [2] it was 10.7%; in assay [3], 33.1%; in assay [4], 1.41%; in assay [5], 32.7%; in assay [6], 21%.
As for `Cn1cnc2c(F)c(Nc3ccc(Br)cc3F)c(C(=O)NOCCO)cc21` [MEK-162] (100 nM), the normalised viability in [7] stood at 98.8%; in [8], 101%; in [9], 82.1%; in assay [10], 25.7%; in assay [11], 107%; in assay [12], 112%.
As for `CS(=O)(=O)OCCCCOS(C)(=O)=O` [Busulfan] (10000 nM), the normalised viability in assay [7] turned out to be 120%; in [8] it was 85.6%; in assay [9] it was 108%; in assay [10], 103%; in assay [11] it was 88.2%; in [12], 104%.
Regarding `CC(C)C[C@H](NC(=O)[C@H](Cc1ccccc1)NC(=O)c1cnccn1)B(O)O` [Bortezomib] (1000 nM), the normalised viability in [1] is 0.38%; in [2], 1.02%; in [3], 2.28%; in assay [4], 0.03%; in assay [5] it was -1.16%; in assay [6], 11.1%.
In the case of `COC1=CC(c2cc3ccccc3[nH]2)=N/C1=C\c1[nH]c(C)cc1C` [Obatoclax] (1000 nM), the normalised viability in assay [7] is 78.3%; in assay [8] it was 72.3%; in assay [9] it was 57.5%; in assay [10] it was 78.4%; in assay [11], 41.6%; in [12], 34%.
In the case of `C[C@@]1(C(=O)Nc2ccc(F)nc2)CCCN1c1nc(Nc2cc(C3CC3)n[nH]2)c2cccn2n1` (10000 nM), the normalised viability is 49.1% in assay [1]; 6.06% in assay [2]; 30.6% in [3]; 3.48% in assay [4]; 7.47% in assay [5]; 75.3% in assay [6].
In the case of `COc1c(C)cnc(Cn2cnc3c(Cl)nc(N)nc32)c1C` [BIIB021] (10000 nM), the normalised viability in assay [1] was 15.7%; in [2], 9.69%; in assay [3], 21.7%; in assay [4], -0.63%; in [5], 30.4%; in [6], 4.83%.
`Cn1c(=O)c(F)c(Nc2ccc(I)cc2F)c2c(=O)n(C[C@@H](O)CO)cnc21` [TAK-733] (100 nM): the normalised viability is 95% in assay [7]; 77.7% in [8]; 60.2% in [9]; 0.99% in assay [10]; 92% in assay [11]; 89.1% in assay [12].
As for `COc1ccc(C2=N[C@@H](c3ccc(Cl)cc3)[C@@H](c3ccc(Cl)cc3)N2C(=O)N2CCNC(=O)C2)c(OC(C)C)c1` [Nutlin-3] (10000 nM), the normalised viability in assay [1] came to 57.3%; in [2], 53.3%; in assay [3], 86.6%; in assay [4], 36.1%; in assay [5] it was 111%; in assay [6], 90%.
As to `COc1ncc(-c2ccc3nccc(-c4ccnnc4)c3c2)cc1NS(=O)(=O)c1ccc(F)cc1F` (1000 nM), the normalised viability in [1] was determined as 2.42%; in assay [2], 3.63%; in assay [3] it was 18.6%; in [4], 10.2%; in assay [5] it was 14.4%; in assay [6], 5.04%.
On to `COc1ncc(-c2ccc3nccc(-c4ccnnc4)c3c2)cc1NS(=O)(=O)c1ccc(F)cc1F` (100 nM), for which the normalised viability stood at 25% in assay [7]; 17.2% in [8]; 30.5% in assay [9]; 61.5% in assay [10]; 22.3% in [11]; 7.68% in assay [12].
`C[C@@H]1C=C2C(=O)O[C@@H]3CC[C@H](C1)[C@]23O` [Galiellalactone] (5000 nM): the normalised viability in [7] was found to be 147%; in [8] it was 105%; in assay [9], 72.6%; in [10], 118%; in assay [11], 98%; in assay [12], 73.7%.
`CS(=O)(=O)OCCCCOS(C)(=O)=O` [Busulfan] (100000 nM): the normalised viability in assay [1] was 114%; in [2], 91.9%; in [3], 105%; in [4], 89%; in assay [5] it was 109%; in [6] it was 103%.
As to `O=c1[nH]c(=O)n([C@H]2C[C@H](O)[C@@H](CO)O2)cc1F` [Floxuridine] (10000 nM), the normalised viability in assay [1] came out at 31.9%; in assay [2], 15.5%; in [3] it was 39.3%; in assay [4], 56.2%; in [5], 93.9%; in [6], 32.2%.
